From patent publication US6770299B1, “Lipid matrix-drug conjugates particle for controlled release of active ingredient” (PharmaSol GmbH, priority 1999, dated 2004)

Key:
[1] = system: solid tumors; conditions: oral preparation, phase 1 study; cited from earlier work
[2] = system: HL 60 tumor cells (human myeloid leukemia cell line); experiment: Differentiation of HL 60 tumor cells, NBT reduction; format: cell-based; conditions: HL 60 cells, free tributyrin dissolved in ethanol
Experimental: The effectiveness of tributyrin drug vehicles was measured in HL 60 tumor cells (human myeloid leukemia cell line). HL 60 cells are a sensitive indicator of the effect of tributyrin. It brings about a differentiation of the tumor cells to granulocyte-like cells. The latter have the property of reducing NBT (nitro-blue tetrazolium) to a blue dye (H. P. Koeffler et al. Blood 62 1 (983) 709-721). Tributyrin-compritol particles, consisting of equal parts of tributyrin and compritol (glycerine tribehenate) were prepared as in Example 1. The overall lipid concentration was 5%, the Poloxamer 188 concentration likewise 5%. The particle size was 147 nm (PCS diameter), the polydispersion index 0.321. The differentiation effect was compared with that of free tributyrin, dissolved in ethanol. […] An adequate quantity of tributyrin-compritol nanoparticle dispersion was, like the corresponding quantities of surfactant solution and pure compritol particle dispersion, added to HL 60 cells and the NBT reduction ascertained after 6 days' incubation time at 37° C. and 5% carbon dioxide content.

CCCC(=O)OCC(COC(=O)CCC)OC(=O)CCC [tributyrin, 1,2,3 butyric acid glycerol ester]
tumor regression [1]: No significant tumor regression | effective 50% dosage (ED 50%), differentiation effect [2]: 130 µM
